Laboratory results reported in US9434976B2, “Modification of sample preparation to differentiate live and dead bacteria by polymerase chain reaction assay” (priority 2013, dated 2016).
“Also recorded” adds a separate entry of the source. Like-named read-outs stand apart in the source and are kept apart here.

Key:
[1] = cited from earlier work
Escherichia coli 0157:H7 = assay: Real time PCR of live, heat-killed or isopropyl alcohol-killed E. coli after treatment with a DNA-binding chemical; format: cell-based; conditions: for Blocking of amplification of DNA from dead bacteria: dead E. coli; for Penetration into E. coli and blocking of PCR amplification: recommended concentration; for PCR amplification product from live versus killed E. coli: Gel Red 3x stock
Procedure: (§1) Various amounts of Gel Red™ can be added to the isolated microbe. Originally the GelRed™ is available at 10,000× solution in water or 3× staining solution in H2O (working solution). The base for the concentration calculation refers to working solution or 3×. In FIGS. 2-4 various dilutions were reported (1:1, 1:10 and 1:100). “1:1” means where 1.0 μl of commercially available Gel Red™ at 3× is diluted in 1.0 μl diluent (such as water). “1:10” means where 1.0 μl of commercially available Gel Red™ at 3× is diluted in 10.0 μl diluent (such as water). “1:100” means where 1.0 μl of commercially available Gel Red™ at 3× is diluted in 100.0 μl diluent (such as water).
(§2) Bacterial species included in these experiments were E. coli, L. monocytogens, and S. Typhimurium. Fresh culture was suspended in a buffer and placed in three tubes (live bacteria, heat-killed and isopropanol-killed bacteria). The first tube contained live bacteria without treatment, and the second and the third tube were inactivated by heat and isopropanol, respectively. The DNA-intercalating chemicals used in this experiment were PMA, EMA and other DNA-binding chemicals, which were not previously reported. The experiments were performed to study the application of sample modification with DNA-binding chemicals to enable PCR to amplify samples only from viable bacteria. […] The bacterial sample was modified with PMA or combined with high voltage light exposure to assess the combined treatment effect.
A sample containing E. coli was tested. One sample included live E. coli. Another sample included heat killed E. coli and another sample contained isopropyl alcohol killed E. coli. In FIG. 2, Compound CE stands for Gel Red™. Real time PCR was run on the samples. […] The Gel Red™ was too highly concentrated that it penetrated all of E. coli even in the “live sample. […] The Gel Red™ was too weak to get into the intact cell membrane of the live E. coli.
In this reaction, the amplification was run using primers that targeted the per gene (which encodes perosamine synthetase).

Listeria monocytogenes = assay: Real time PCR of live, heat-killed or isopropyl alcohol-killed L. monocytogenes after treatment with a DNA-binding chemical; format: cell-based; conditions: for Blocking of amplification of DNA from dead bacteria: dead L. monocytogens; for PCR product from live versus killed L. monocytogenes: Gel Red 3x stock
Procedure: as §1, §2
(§3) A sample containing L. monocytogenes was tested. One sample included live L. monocytogenes. Another sample included heat killed L. monocytogenes and another sample contained isopropyl alcohol killed L. monocytogenes. In FIG. 3, Compound CE stands for Gel Red™. Real time PCR was run on the samples.
In this reaction, the amplification was run using primers that targeted the Hly 9125 gene (which encodes listeriolysin O protein).

Salmonella Typhimurium = assay: Real time PCR of live, heat-killed or isopropyl alcohol-killed Salmonella Typhimurium after treatment with a DNA-binding chemical; format: cell-based; conditions: for Blocking of amplification of DNA from dead bacteria: dead S. typhimurium; for PCR product from live versus killed Salmonella Typhimurium: Gel Red 3x stock
Procedure: as §1, §2
as §3, with “Salmonella Typhimurium” for “L. monocytogenes”, “Salmonella Typhimurium.” for “L. monocytogenes.”, “4,” for “3,”
In this reaction, the amplification was run using primers that targeted the ycdC gene (which encodes a putative transcriptional repressor protein).

[2] = cited from earlier work; remark: listed apart in the source
bacterial sample = assay: PMA sample modification combined with high voltage light exposure, PCR; format: cell-based
From the text: as §2

[3] = concentrations well above the working concentrations used in gel staining

For ethidium monoazide bromide [EMA], the Harmfulness ([1]; Table 1) is given as “Potentially harmful”, the “Blocking of amplification of DNA from dead bacteria” value (“Blocking of amplification of DNA” for short) (Escherichia coli 0157:H7) is given as “can block the amplification of DNA from dead bacteria” and the “Penetration into E. coli and blocking of PCR amplification” value (Escherichia coli 0157:H7) is given as “penetrates only live E. coli”. The “Blocking of amplification of DNA” value (Listeria monocytogenes) was “can block the amplification of DNA from dead bacteria”, the “Blocking of amplification of DNA” value (Salmonella Typhimurium) was “can block the amplification of DNA from dead bacteria” and the Solubility ([2]; Table 1) was “Soluble in DMF or EtOH”.
For `CC[N+](C)(CC)CCC[n+]1c(-c2ccccc2)c2cc(N=[N+]=[N-])ccc2c2ccc(N)cc21` [PMA, propidium monoazide], the “Cytotoxicity (Description)” value ([1]; Table 1) is given as “substantially lower”, the “Blocking of amplification of DNA” value (Escherichia coli 0157:H7) is given as “completely blocks the amplification of DNA from dead; also recorded: can block the amplification of DNA from dead bacteria” and the “Penetration into E. coli and blocking of PCR amplification” value (Escherichia coli 0157:H7) is given as “penetrates only live E. coli”. For the same compound, the “Blocking of amplification of DNA” value (Listeria monocytogenes) was “completely blocks the amplification of DNA from dead; also recorded: can block the amplification of DNA from dead bacteria”, the “Blocking of amplification of DNA” value (Salmonella Typhimurium) was “completely blocks the amplification of DNA from dead; also recorded: can block the amplification of DNA from dead bacteria” and the “Effect of PMA combined with light exposure compared with PMA only” value (bacterial sample) was “not much different from using only PMA”.
In the case of `Nc1ccc2c(c1)c(-c1ccccc1)[n+](CCCCCC(=O)NCCCOCCOCCOCCCNC(=O)CCCCC[n+]1c(-c3ccccc3)c3cc(N)ccc3c3ccc(N)cc31)c1cc(N)ccc21.[I-].[I-]` [Gel Red™, 5, 5′-(6, 22-dioxo-11, 14, 17-trioxa-7, 21-diazaheptacosane-1, 27-diyl)bis(3,8-diamino-6-phenylphenanthridin-5-ium) iodide], the “Cytotoxicity (Description)” value ([1]; Table 1) is listed as “noncytotoxic”, the Cytotoxicity [1, 3] is listed as “noncytotoxic” and the Hazard [1, 3] is listed as “nonhazardous”. The Mutagenicity [1, 3] was “nonmutagenic”, the “PCR amplification product from live versus killed E. coli” value (Escherichia coli 0157:H7; dilution 1:1) was “no PCR products even in the sample containing the live bacteria” and the “PCR amplification product from live versus killed E. coli” value (Escherichia coli 0157:H7; dilution 1:10) was “signal from live but not from killed samples”. For the same compound, the “PCR amplification product from live versus killed E. coli” value (Escherichia coli 0157:H7; dilution 1:100) was “amplification products in all samples, including the killed bacteria samples”, the “PCR product from live versus killed L. monocytogenes” value (Listeria monocytogenes; dilution 1:1) was “no PCR products” and the “PCR product from live versus killed L. monocytogenes” value (Listeria monocytogenes; dilution 1:10) was “signal from live but not from killed samples”. For the same compound, the “PCR product from live versus killed L. monocytogenes” value (Listeria monocytogenes; dilution 1:100) was “signal from live but not from killed samples”, the “PCR product from live versus killed Salmonella Typhimurium” value (Salmonella Typhimurium; dilution 1:1) was “no PCR products” and the “PCR product from live versus killed Salmonella Typhimurium” value (Salmonella Typhimurium; dilution 1:10) was “no PCR products”. The “PCR product from live versus killed Salmonella Typhimurium” value (Salmonella Typhimurium; dilution 1:100) was “signal from live but not from killed samples”, the “Stability under normal light” value ([2]; Table 1, normal light) was “light (photostable)” and the Stability ([2]; Table 1) was “stable”. The Stability ([2]; general statement) was “extremely stable”.
